Laboratory results: patent US20070117743A1, “New antitumoral compounds” (priority 2003, published 2007)

Columns and labels:
Type in all cases: cell-based, human
IGROV-ET = assay: SRB colorimetric assay of cell growth and viability, IGROV-ET; conditions: 48 hours exposure; for CC50: read-out: LC50 IGROV-ET
PANC-1 = assay: SRB colorimetric assay of cell growth and viability, PANC-1; conditions: 48 hours exposure; for CC50: read-out: LC50 PANC-1
SK-MEL-28 = assay: SRB colorimetric assay of cell growth and viability, SK-MEL-28; conditions: 48 hours exposure; for CC50: read-out: LC50 MEL-28
HT-29 = assay: SRB colorimetric assay of cell growth and viability, HT-29; conditions: 48 hours exposure; for GI50: read-out: GI50 HT-29; for CC50: read-out: LC50 HT-29
LNCaP = assay: SRB colorimetric assay of cell growth and viability, LNCaP; conditions: 48 hours exposure; for GI50: read-out: GI50 LN-caP; for CC50: read-out: LC50 LN-caP
LoVo = assay: SRB colorimetric assay of cell growth and viability, LoVo; conditions: 48 hours exposure; for CC50: read-out: LC50 LOVO
A-549 = assay: SRB colorimetric assay of cell growth and viability, A-549; conditions: 48 hours exposure; for GI50: read-out: GI50 A-549; for CC50: read-out: LC50 A-549
HeLa = assay: SRB colorimetric assay of cell growth and viability, HeLa; conditions: 48 hours exposure; for CC50: read-out: LC50 HELA
K-562 = assay: SRB colorimetric assay of cell growth and viability, K-562; conditions: 48 hours exposure; for CC50: read-out: LC50 K-562
HeLa-APL = assay: SRB colorimetric assay of cell growth and viability, HeLa-APL; conditions: 48 hours exposure; for CC50: read-out: LC50 HELA-APL
IGROV-1 = assay: SRB colorimetric assay of cell growth and viability, IGROV-1; conditions: 48 hours exposure
SK-BR-3 = assay: SRB colorimetric assay of cell growth and viability, SK-BR-3; conditions: 48 hours exposure
DU-145 = assay: SRB colorimetric assay of cell growth and viability, DU-145; conditions: 48 hours exposure

C/C=C1\NC(=O)[C@H](Cc2ccccc2)NC(=O)[C@@H](C(C)C)NC(=O)[C@@H]([C@@H](C)CC)NC(=O)[C@H](NC(=O)[C@H](NC(=O)[C@H](CCCN)NC(=O)[C@H]2CCCN2C(=O)[C@H](NC(=O)[C@@H](NC(=O)[C@@H](NC(=O)[C@H](NC(=O)CCCCCCCCCCCCCCCCCCC)C(C)C)[C@@H](C)O)C(C)C)C(C)C)[C@@H](C)CC)[C@@H](C)OC(=O)[C@H](C(C)C)NC1=O [Compound 13, [Icos^14]-KF]
GI50 (IGROV-ET): 1.66 µM | TGI IGROV-ET (IGROV-ET): 2.81E−06 Molar | CC50 (IGROV-ET): 4.79 µM | GI50 (PANC-1): 2.02 µM | TGI PANC-1 (PANC-1): 5.48E−06 Molar | CC50 (PANC-1): 6.02 µM | GI50 (SK-MEL-28): 1.25 µM | TGI MEL-28 (SK-MEL-28): 2.21E−06 Molar | CC50 (SK-MEL-28): 3.93 µM | TGI HT-29 (HT-29): 2.32E−06 Molar | GI50 (HT-29): 1.26 µM | CC50 (HT-29): 4.28 µM | TGI LN-caP (LNCaP): 2.39E−06 Molar | GI50 (LNCaP): 1.21 µM | CC50 (LNCaP): 4.73 µM | GI50 (LoVo): 0.903 µM | TGI LOVO (LoVo): 1.79E−06 Molar | CC50 (LoVo): 3.58 µM | TGI A-549 (A-549): 2.13E−06 Molar | GI50 (A-549): 1.18 µM | CC50 (A-549): 3.82 µM | GI50 (HeLa): 1.4 µM | TGI HELA (HeLa): 2.71E−06 Molar | CC50 (HeLa): 5.25 µM | GI50 (K-562): 1.23 µM | TGI K-562 (K-562): 2.42E−06 Molar | CC50 (K-562): 4.71 µM | GI50 (HeLa-APL): 1.25 µM | CC50 (HeLa-APL): 3.98 µM | GI50 (IGROV-1): 1.36 µM | LC50 (concentration causing 50% net cell killing) (IGROV-1): 4.68 µM | TGI IGROV (IGROV-1): 2.52E−06 Molar | GI50 (SK-BR-3): 0.861 µM | LC50 (SK-BR-3): 3.99 µM | TGI SK-BR-3 (SK-BR-3): 1.86E−06 Molar | GI50 (DU-145): 1.28 µM | LC50 (concentration causing 50% net cell kill) (DU-145): 4.04 µM | TGI DU-145 (DU-145): 2.28E−06 Molar

C/C=C1\NC(=O)[C@H](Cc2ccccc2)NC(=O)[C@@H](C(C)C)NC(=O)[C@@H]([C@@H](C)CC)NC(=O)[C@H](NC(=O)[C@H](NC(=O)[C@H](CCCN)NC(=O)[C@H]2CCCN2C(=O)[C@H](NC(=O)[C@H](NC(=O)[C@@H](NC(=O)[C@H](NC(=O)CCCC(C)C)C(C)C)[C@@H](C)O)C(C)C)C(C)C)[C@@H](C)CC)[C@@H](C)OC(=O)[C@H](C(C)C)NC1=O [Compound 46, [D-Val^11]-KF]
GI50 (IGROV-ET): 1.67 µM | TGI IGROV-ET (IGROV-ET): 3.62E−06 Molar | CC50 (IGROV-ET): ≥ 6.77 µM | GI50 (PANC-1): 3.12 µM | TGI PANC-1 (PANC-1): 6.77E−06 Molar | CC50 (PANC-1): ≥ 6.77 µM | GI50 (SK-MEL-28): ≥ 6.77 µM | TGI MEL-28 (SK-MEL-28): 6.77E−06 Molar | CC50 (SK-MEL-28): ≥ 6.77 µM | TGI HT-29 (HT-29): 6.77E−06 Molar | GI50 (HT-29): 2.5 µM | CC50 (HT-29): ≥ 6.77 µM | TGI LN-caP (LNCaP): 6.77E−06 Molar | GI50 (LNCaP): 2.42 µM | CC50 (LNCaP): ≥ 6.77 µM | GI50 (LoVo): 1.2 µM | TGI LOVO (LoVo): 2.30E−06 Molar | CC50 (LoVo): 4.4 µM | TGI A-549 (A-549): 6.77E−06 Molar | GI50 (A-549): 3.67 µM | CC50 (A-549): ≥ 6.77 µM | GI50 (HeLa): 4.61 µM | TGI HELA (HeLa): 6.77E−06 Molar | CC50 (HeLa): ≥ 6.77 µM | GI50 (K-562): 3.04 µM | TGI K-562 (K-562): 6.77E−06 Molar | CC50 (K-562): ≥ 6.77 µM | GI50 (HeLa-APL): 3.3 µM | TGI HELA-APL (HeLa-APL): 6.77E−06 Molar | CC50 (HeLa-APL): ≥ 6.77 µM | GI50 (IGROV-1): 1.5 µM | LC50 (concentration causing 50% net cell killing) (IGROV-1): ≥ 6.77 µM | TGI IGROV (IGROV-1): 3.55E−06 Molar | GI50 (SK-BR-3): 1.35 µM | LC50 (SK-BR-3): 5.62 µM | TGI SK-BR-3 (SK-BR-3): 2.75E−06 Molar | GI50 (DU-145): 2.43 µM | LC50 (concentration causing 50% net cell kill) (DU-145): ≥ 6.77 µM | TGI DU-145 (DU-145): 6.77E−06 Molar
